Values quoted from earlier work, collected in patent US20170333338A1, “SUSTAINED AND REVERSIBLE ORAL DRUG DELIVERY SYSTEMS” (The Children's Medical Center Corporation, priority 2014, published 2017).

highest pKa of the phosphate groups: 10.18
SMILES: NCCC(O)(P(=O)(O)O)P(=O)(O)O [Pamidronate]
